Assay results reported in patent US7569608B2, “Pentanoic acid derivatives” (Ono Pharmaceutical Co., Ltd., priority 1993, dated 2009).

How the values were obtained:
GABAA receptor [1] = test: Experiment 2: regeneration of GABAA receptor responses in reactive astrocytes; format: cell-based, rat; conditions: 14 DIV after serial passages, control 8 ± 6
Protocol: (§1) Preparation of astrocyte cultures: After removing the meninges, isolated cerebrum of neonatal rats (age: day 1) were placed on frosted glass-slides and minced. The sample was then digested with trypsin (0.25%) and DNase 1 (0.02%) and suspended in 10% FCS-DMEM before centrifugation. After resuspending in 10% FCS-DMEM, the suspension was dispersed in dishes and cultured at 37° C. under 5% CO2 atmosphere. Non-adherent cells were removed from the dishes after agitation/washing on post-culture 24 hours. Note that the adherent cell population was composed of more than 95% of GFAP-positive cells.
(§2) GFAP contents and GABAA receptor responses: The improvement effects on astrocyte functions were evaluated from the following indices: inhibition derived from the increase in GFAP content and inhibition in the disappearance of GABAA receptor responses. Thus, sodium valproate (Sigma Chem. Co., U.S.A.) was added on 1 DIV followed by whole-cell mode voltage-clamp method on 7 DIV-to measure the GABA (3×10^−5 M)-induced Cl^− current. The Cl^− current was taken as an index for the GABA response. Furthermore, GFAP contents were determined by the ELISA method on 11 DIV.
Astrocytes were prepared and cultured in a manner similar to Experiment 1. On 14 DIV, reactive astrocytes were subjected to a serial passage (10^5 cells/dish). The thus adherent reactive astrocytes were washed, and transferred to culture media containing the present effectively developed compound(s) or invention. On 14 DIV after serial passages, GABAA receptor responses were tested according to procedures designated in Experiment 1.

[2] = test system: experimental brain ischemia model; test: Experiment 4: experimental brain ischemia, conditional avoidance experiment; format: in vivo, rat; conditions: 300 mg/kg i.p. once daily for 4 days after deligation; 10 trials within 2 days; ischemic reference 2.8±0.8, normal 6.1±0.7, sham 4.8±0.8
Protocol: Establishing the experimental brain ischemia model: Vertebral arteries of pentobarbital-anesthetized rats were bilaterally coagulated, and a period of 7 days was allowed for recovery. The previously surgically exposed bilateral common carotid arteries of ischemic rats were mechanically ligated for 20 min. Immediately after deligation, the rats were once daily injected i.p. with sodium valproate (300 mg/kg) for 4 consecutive days. On deligation day 5˜6, mobility aspects in the conditional avoidance experiment were monitored.
Mobility aspects of the conditional avoidance experiment: The step-up model of the dark/light box was used. Animals placed in the dark section of the grid-floored box with the connecting door closed were allowed to accustomed to the environment for 1 minute. The door was then opened for 10 seconds. Rats that stepped up to the lighted section via the opened door were considered positive in the conditional avoidance test. Animals categorized as negative in the test were placed in the dark section with the door closed for 10 seconds prior to subjecting them to electric foot shock at 2 mA for 50 seconds. […] The above procedure was repeated 5 trials per day at 30-minutes intervals. A total of 10 trials within 2 days were attempted.

GABAA receptor [3] = test: Experiment 1: GABAA receptor responses of cultured astrocytes (GABA-induced Cl- current, whole-cell voltage-clamp); format: cell-based, rat; conditions: added on 1 DIV, measured on 7 DIV, GABA 3×10^−5 M-induced Cl− current, control 90 ± 43
Protocol: as §1, §2

astrocytes = test: Experiment 1: GFAP contents of cultured astrocytes (ELISA); format: cell-based, rat; conditions: added on 1 DIV, ELISA on 11 DIV, ratio of the control group (control 100.0)
Protocol: as §1, §2
The GFAP contents were expressed as a ratio of the control group.

neurons = test: Experiment 3: suppression of cell death in neurons-astrocytes co-culture; format: cell-based, rat; conditions: 3 mM, neurons co-cultured with astrocytes
Protocol: Astrocytes, prepared in a manner similar to that of Experiment 1, were cultured for 14 days. Previously prepared neurons (3×10^4 cells/well), isolated from cerebrum of 19-day old fetus rats, were added to the cultured astrocytes (3×10^5 cells/well) and allowed to grow. During the culture process, survival rates and neuronal dendrite extension/ramification of neurons were observed. Note that, sodium valproate (3 mM) and astrocytes were initially added to the neurons concomitantly, and freshly prepared similar culture media containing the invented compound (3 mM) were subsequently added at 3˜4-day intervals.

CCCC(CCCCCF)C(=O)[O-].[Na+] (centres unmarked) [Example 7]
GABAA receptor responses (means ± S.E.) (GABAA receptor [1]; 0.3 mM): 213.1 ± 150.1 pA
GABAA receptor responses (means ± S.E.) (GABAA receptor [1]; 1.0 mM): 661.7 ± 306.3 pA

CCCC(CCCCF)C(=O)[O-].[Na+] (centres unmarked) [Example 2(6)]
GABAA receptor responses (means ± S.E.) (GABAA receptor [1]; 0.3 mM): 184.0 ± 118.1 pA
GABAA receptor responses (means ± S.E.) (GABAA receptor [1]; 3.0 mM): 528.0 ± 160.2 pA

CCCC(CCCCCC(F)(F)F)C(=O)[O-].[Na+] (centres unmarked) [Example 2(9)]
GABAA receptor responses (means ± S.E.) (GABAA receptor [1]; 0.3 mM): 236.4 ± 85.5 pA

CCCC(CCCCOC)C(=O)[O-].[Na+] (centres unmarked) [Example 7(14)]
GABAA receptor responses (means ± S.E.) (GABAA receptor [1]; 3.0 mM): 285.7 ± 103.6 pA

CCCC(CCC)C(=O)[O-].[Na+] [VPA, sodium valproate]
conditional avoidance response, count (frequencies) [2]: 5.3±0.8
GABAA receptor responses (means ± S.E.) (GABAA receptor [3]; 0.3 mM): 254 ± 106 pA
GABAA receptor responses (means ± S.E.) (GABAA receptor [3]; 1.0 mM): 432 ± 98 pA
GABAA receptor responses (means ± S.E.) (GABAA receptor [3]; 3.0 mM): 1301 ± 156 pA
GABAA receptor responses (means ± S.E.) (GABAA receptor [1]; 0.3 mM): 37 ± 26 pA
GABAA receptor responses (means ± S.E.) (GABAA receptor [1]; 1.0 mM): 193 ± 141 pA
GABAA receptor responses (means ± S.E.) (GABAA receptor [1]; 3.0 mM): 1263 ± 303 pA
Ratio of increase in GFAP contents (astrocytes; 0.3 mM): 30.6%
Ratio of increase in GFAP contents (astrocytes; 1.0 mM): 36.3%
Ratio of increase in GFAP contents (astrocytes; 3.0 mM): 44.3%
Survival rates (on 22 days) (neurons; control <10%): 60-70%^
dendrite generation in the neurons (neurons; not observed in control): detected

CCCC(CCCC(F)(F)F)C(=O)[O-].[Na+] (centres unmarked) [Example 2(8)]
GABAA receptor responses (means ± S.E.) (GABAA receptor [1]; 1.0 mM): 470.6 ± 124.9 pA
GABAA receptor responses (means ± S.E.) (GABAA receptor [1]; 3.0 mM): 808.6 ± 325.4 pA

CCCC[C@@H](CC)C(=O)O (racemic) [Example 11]
GABAA receptor responses (means ± S.E.) (GABAA receptor [1]; 0.3 mM): 35 ± 15 pA
GABAA receptor responses (means ± S.E.) (GABAA receptor [1]; 1.0 mM): 190 ± 134 pA
GABAA receptor responses (means ± S.E.) (GABAA receptor [1]; 3.0 mM): 281 ± 174 pA

CCCCCCCCC(CCC)C(=O)[O-].[Na+] (centres unmarked) [Example 7(32)]
GABAA receptor responses (means ± S.E.) (GABAA receptor [1]; 0.1 mM): 48 ± 20 pA

CCCCC(CCC)C(=O)[O-].[Na+] (centres unmarked) [Example 7(31)]
GABAA receptor responses (means ± S.E.) (GABAA receptor [1]; 0.3 mM): 51 ± 28 pA
GABAA receptor responses (means ± S.E.) (GABAA receptor [1]; 1.0 mM): 565 ± 278 pA
GABAA receptor responses (means ± S.E.) (GABAA receptor [1]; 3.0 mM): 590 ± 180 pA

CCCCCCC(CCC)C(=O)[O-].[Na+] (centres unmarked) [Example 7(33)]
GABAA receptor responses (means ± S.E.) (GABAA receptor [1]; 0.03 mM): 40 ± 23 pA
GABAA receptor responses (means ± S.E.) (GABAA receptor [1]; 0.1 mM): 237 ± 69 pA
GABAA receptor responses (means ± S.E.) (GABAA receptor [1]; 0.3 mM): 1260 ± 521 pA

CCCC(CCCCC(F)F)C(=O)[O-].[Na+] (centres unmarked) [Example 2]
GABAA receptor responses (means ± S.E.) (GABAA receptor [1]; 0.3 mM): 193 ± 103 pA
GABAA receptor responses (means ± S.E.) (GABAA receptor [1]; 1.0 mM): 628 ± 227 pA

CCCC(C(=O)[O-])C1CCCCC1.[Na+] (centres unmarked) [Example 7(26)]
GABAA receptor responses (means ± S.E.) (GABAA receptor [1]; 3.0 mM): 344.7 ± 342.5 pA

C=CCC(CCC)C(=O)[O-].[Na+] (centres unmarked) [Example 7(28)]
GABAA receptor responses (means ± S.E.) (GABAA receptor [1]; 3.0 mM): 122 ± 44 pA

CCCC(CCCF)C(=O)[O-].[Na+] (centres unmarked) [Example 2(5)]
GABAA receptor responses (means ± S.E.) (GABAA receptor [1]; 3.0 mM): 326 ± 148 pA

CCCC(CCCOc1ccccc1)C(=O)[O-].[Na+] (centres unmarked) [Example 7(9)]
GABAA receptor responses (means ± S.E.) (GABAA receptor [1]; 0.3 mM): 512.1 ± 233.1 pA
GABAA receptor responses (means ± S.E.) (GABAA receptor [1]; 3.0 mM): 226.3 ± 60.5 pA

CCCC(CCCCCCCF)C(=O)[O-].[Na+] (centres unmarked) [Example 7(2)]
GABAA receptor responses (means ± S.E.) (GABAA receptor [1]; 0.3 mM): 730.0 ± 226.4 pA

CCCC(Cl)(CCC)C(=O)OC [Example 9]
GABAA receptor responses (means ± S.E.) (GABAA receptor [1]; 3.0 mM): 467 ± 187 pA

CCCCCC(CCC)C(=O)[O-].[Na+] (centres unmarked) [Example 7(30)]
GABAA receptor responses (means ± S.E.) (GABAA receptor [1]; 0.3 mM): 233 ± 90 pA
GABAA receptor responses (means ± S.E.) (GABAA receptor [1]; 1.0 mM): 675 ± 201 pA

CCCC(CCCC(C)C)C(=O)[O-].[Na+] (centres unmarked) [Example 7(18)]
GABAA receptor responses (means ± S.E.) (GABAA receptor [1]; 1.0 mM): 658.6 ± 440.7 pA

CCCC(CCC1CCCCC1)C(=O)[O-].[Na+] (centres unmarked) [Example 7(4)]
GABAA receptor responses (means ± S.E.) (GABAA receptor [1]; 0.3 mM): 163.0 ± 60.4 pA

CCCC(CCCCC(C)C)C(=O)[O-].[Na+] (centres unmarked) [Example 7(17)]
GABAA receptor responses (means ± S.E.) (GABAA receptor [1]; 0.3 mM): 259.0 ± 83.7 pA

CCCC(CCC(C)C)C(=O)[O-].[Na+] (centres unmarked) [Example 7(16)]
GABAA receptor responses (means ± S.E.) (GABAA receptor [1]; 0.3 mM): 105 ± 65 pA
GABAA receptor responses (means ± S.E.) (GABAA receptor [1]; 1.0 mM): 417 ± 140 pA

CCCCCOC(CCC)C(=O)[O-].[Na+] (centres unmarked) [Example 7(37)]
GABAA receptor responses (means ± S.E.) (GABAA receptor [1]; 0.3 mM): 139 ± 52 pA
GABAA receptor responses (means ± S.E.) (GABAA receptor [1]; 3.0 mM): 595 ± 190 pA

CCCC(CCCCC(F)(F)F)C(=O)[O-].[Na+] (centres unmarked) [Example 2(10)]
GABAA receptor responses (means ± S.E.) (GABAA receptor [1]; 0.3 mM): 800.0 ± 415.6 pA

CCCC(CCCCCCF)C(=O)[O-].[Na+] (centres unmarked) [Example 7(1)]
GABAA receptor responses (means ± S.E.) (GABAA receptor [1]; 0.3 mM): 260.0 ± 47.3 pA

CCCC(CCCCCC(F)F)C(=O)[O-].[Na+] (centres unmarked) [Example 2(2)]
GABAA receptor responses (means ± S.E.) (GABAA receptor [1]; 0.1 mM): 114 ± 81 pA
GABAA receptor responses (means ± S.E.) (GABAA receptor [1]; 0.3 mM): 527 ± 201 pA

CCCC(CCCCc1ccccc1)C(=O)[O-].[Na+] (centres unmarked) [Example 7(8)]
GABAA receptor responses (means ± S.E.) (GABAA receptor [1]; 1.0 mM): 59.0 ± 20.6 pA

CCCCCCCC(CCC)C(=O)O (centres unmarked) [Example 2-PNA, 2-propylnonanic acid]
GABAA receptor responses (means ± S.E.) (GABAA receptor [1]; 0.03 mM): 85 ± 41 pA
GABAA receptor responses (means ± S.E.) (GABAA receptor [1]; 0.1 mM): 107 ± 50 pA
GABAA receptor responses (means ± S.E.) (GABAA receptor [1]; 0.3 mM): 380 ± 124 pA

CC/C=C(\CCC)C(=O)[O-].[Na+] [Example 13]
GABAA receptor responses (means ± S.E.) (GABAA receptor [1]; 3.0 mM): 171 ± 55 pA

CCCC(CCC(F)(F)F)C(=O)[O-].[Na+] (centres unmarked) [Example 2(12)]
GABAA receptor responses (means ± S.E.) (GABAA receptor [1]; 1.0 mM): 672 ± 242 pA
GABAA receptor responses (means ± S.E.) (GABAA receptor [1]; 3.0 mM): 1109 ± 227 pA
